Measured values published in US11820766B2, “Monoacylglycerol lipase modulators” (Janssen Pharmaceutica NV, priority 2018, dated 2023).

What follows are compounds tested against T1, human MGL from HeLa cells (Homo sapiens, UniProt Q99685) (assay: In vitro MGL activity assay: [glycerol-1,3-3H]-oleyl glycerol cleavage by MGL from HeLa cells). Conditions: 300 nM [Glycerol-1,3-3H]-oleyl glycerol, one hour.
T1 construct: combining endogenously expressed MGL from HeLa cells with test compounds; endogenous in cells; host or cells: HeLa cells / cell homogenates
T1 sequence (Q99685 1-303): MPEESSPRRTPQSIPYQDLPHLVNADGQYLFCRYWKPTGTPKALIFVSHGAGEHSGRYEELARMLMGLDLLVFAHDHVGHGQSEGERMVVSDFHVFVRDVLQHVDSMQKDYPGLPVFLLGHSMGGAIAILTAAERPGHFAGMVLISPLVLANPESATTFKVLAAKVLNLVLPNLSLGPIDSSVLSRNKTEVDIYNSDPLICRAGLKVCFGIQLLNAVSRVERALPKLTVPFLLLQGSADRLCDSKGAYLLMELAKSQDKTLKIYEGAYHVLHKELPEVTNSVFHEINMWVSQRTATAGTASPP
Format: biochemical
Description: MGL is the predominant hydrolase in HeLa cells/cell homogenates.
C[C@H]1c2nn(C)c(-c3cc(F)c(F)c(F)c3)c2CCN1C(=O)c1nn(C)c2ncccc12 [Example 427, [(7S)-2,7-Dimethyl-3-(3,4,5-trifluorophenyl)-5,7-dihydro-4H-pyrazolo[3,4-c]pyridin-6-yl]-(1-methylpyrazolo[3,4-b]pyridin-3-yl)methanone] gave an IC50 of 0.0286 µM.
C[C@H]1c2nn(C)c(-c3ccc(F)c(F)c3F)c2CCN1C(=O)c1ccc2ncccc2c1 [Example 515, [(7S)-2,7-Dimethyl-3-(2,3,4-trifluorophenyl)-5,7-dihydro-4H-pyrazolo[3,4-c]pyridin-6-yl]-(6-quinolyl)methanone] was tested, and the IC50 was 0.0522 µM.
Work on C[C@H]1c2nn(C)c(-c3cc(F)c(F)c(F)c3)c2CCN1C(=O)c1c[nH]c2ncc(F)cc12 [Example 374, [(7S)-2,7-Dimethyl-3-(3,4,5-trifluorophenyl)-5,7-dihydro-4H-pyrazolo[3,4-c]pyridin-6-yl]-(5-fluoro-1H-pyrrolo[2,3-b]pyridin-3-yl)methanone] yielded an IC50 of 0.021 µM.
Compound Cc1nc2ccccn2c1C(=O)N1CCc2c(nn(C)c2-c2cc(F)c(F)c(F)c2)[C@@H]1C [Example 397, [(7S)-2,7-Dimethyl-3-(3,4,5-trifluorophenyl)-5,7-dihydro-4H-pyrazolo[3,4-c]pyridin-6-yl]-(2-methylimidazo[1,2-a]pyridin-3-yl)methanone] has an IC50 of 0.0103 µM.
Cc1cnn2cccc(C(=O)N3CCc4c(nn(C)c4-c4cc(F)c(F)c(F)c4)[C@@H]3C)c12 [Example 380, [(7S)-2,7-Dimethyl-3-(3,4,5-trifluorophenyl)-5,7-dihydro-4H-pyrazolo[3,4-c]pyridin-6-yl]-(3-methylpyrazolo[1,5-a]pyridin-4-yl)methanone] gave an IC50 of 0.044 µM.
With C[C@H]1c2nn(C)c(-c3cc(F)c(F)c(F)c3)c2CCN1C(=O)c1cnn2c1CCC2 [Example 551, 5,6-Dihydro-4H-pyrrolo[1,2-b]pyrazol-3-yl-[(7S)-2,7-dimethyl-3-(3,4,5-trifluorophenyl)-5,7-dihydro-4H-pyrazolo[3,4-c]pyridin-6-yl]methanone] the IC50 was 0.122 µM.
Work on Cc1nn2cccnc2c1C(=O)N1CCc2c(nn(C)c2-c2cc(F)c(F)c(F)c2)[C@@H]1C [Example 449, [(7S)-2,7-Dimethyl-3-(3,4,5-trifluorophenyl)-5,7-dihydro-4H-pyrazolo[3,4-c]pyridin-6-yl]-(2-methylpyrazolo[1,5-a]pyrimidin-3-yl)methanone] yielded an IC50 of 0.049 µM.
C[C@H]1c2nn(C)c(-c3cc(F)c(F)c(F)c3)c2CCN1C(=O)c1ncnc2c1ccn2C [Example 466, [(7S)-2,7-Dimethyl-3-(3,4,5-trifluorophenyl)-5,7-dihydro-4H-pyrazolo[3,4-c]pyridin-6-yl]-(7-methylpyrrolo[2,3-d]pyrimidin-4-yl)methanone] gave an IC50 of 0.00586 µM.
C[C@H]1c2nn(C)c(-c3ccc(F)cc3F)c2CCN1C(=O)c1ccc2ncccc2c1 [Example 502, [(7S)-3-(2,4-Difluorophenyl)-2,7-dimethyl-5,7-dihydro-4H-pyrazolo[3,4-c]pyridin-6-yl]-(6-quinolyl)methanone] gave an IC50 of 0.106 µM.
In the case of C[C@H]1c2nn(-c3ccccc3)c(-c3ccccc3)c2CCN1C(=O)c1cnn(C)c1C1CC1 [Example 350, (S)-(5-cyclopropyl-1-methyl-1H-pyrazol-4-yl) (7-methyl-2,3-diphenyl-2,4,5,7-tetrahydro-6H-pyrazolo[3,4-c]pyridin-6-yl)methanone], the IC50 is reported as 0.0276 µM.
C[C@H]1c2nn(C)c(-c3cc(F)c(F)c(F)c3)c2CCN1C(=O)c1cnc2cccnn12 [Example 454, [(7S)-2,7-Dimethyl-3-(3,4,5-trifluorophenyl)-5,7-dihydro-4H-pyrazolo[3,4-c]pyridin-6-yl]-imidazo[1,2-b]pyridazin-3-yl-methanone] showed an IC50 of 0.0249 µM.
C[C@H]1c2nn(C)c(-c3cc(F)c(F)c(F)c3)c2CCN1C(=O)c1cnc2c(c1)COCC2 [Example 567, 7,8-Dihydro-5H-pyrano[4,3-b]pyridin-3-yl-[(7S)-2,7-dimethyl-3-(3,4,5-trifluorophenyl)-5,7-dihydro-4H-pyrazolo[3,4-c]pyridin-6-yl]methanone] showed an IC50 of 1.05 µM.
With Cc1cc2c(C(=O)N3CCc4c(nn(C)c4-c4cc(F)c(F)c(F)c4)[C@@H]3C)ncnc2n1C [Example 469, (6,7-Dimethylpyrrolo[2,3-d]pyrimidin-4-yl)-[(7S)-2,7-dimethyl-3-(3,4,5-trifluorophenyl)-5,7-dihydro-4H-pyrazolo[3,4-c]pyridin-6-yl]methanone] the IC50 was 0.0364 µM.
Cc1cnn2c(C(=O)N3CCc4c(nn(C)c4-c4cc(F)c(F)c(F)c4)[C@@H]3C)c(C)nc2c1 [Example 457, (2,7-Dimethylimidazo[1,2-b]pyridazin-3-yl)-[(7S)-2,7-dimethyl-3-(3,4,5-trifluorophenyl)-5,7-dihydro-4H-pyrazolo[3,4-c]pyridin-6-yl] methanone] gave an IC50 of 0.0394 µM.

Same assay, conditions: 300 nM [Glycerol-1,3-3H]-oleyl glycerol, one hour incubation
For Cc1ccc(-n2nccn2)c(C(=O)N2CCc3c(nn(C)c3-c3cc(F)c(F)c(F)c3)[C@@H]2C)n1 [Example 319, [(7S)-2,7-Dimethyl-3-(3,4,5-trifluorophenyl)-5,7-dihydro-4H-pyrazolo[3,4-c]pyridin-6-yl]-[6-methyl-3-(triazol-2-yl)-2-pyridyl]methanone], the IC50 was 0.255 µM.
For COc1cccc(C(F)(F)F)c1C(=O)N1CCc2c(nn(C)c2-c2ccccc2)C1 [Example 5, (2-Methoxy-6-(trifluoromethyl)phenyl)(2-methyl-3-phenyl-2,4,5,7-tetrahydro-6H-pyrazolo[3,4-c]pyridin-6-yl)methanone], the IC50 was greater than 10 µM.
C[C@H]1c2nn(C)c(-c3cc(F)c(F)c(F)c3)c2CCN1C(=O)c1cccc2c1ccn2C [Example 207, (S)-(2,7-dimethyl-3-(3,4,5-trifluorophenyl)-2,4,5,7-tetrahydro-6H-pyrazolo[3,4-c]pyridin-6-yl)(1-methyl-1H-indol-4-yl)methanone] was tested, and the IC50 was 0.00022 µM.
CC1c2nn(C)c(-c3cc(F)cc(F)c3)c2CCN1C(=O)c1ccc2nccnc2c1 (centres unmarked) [Example 167, (3-(3,5-Difluorophenyl)-2,7-dimethyl-2,4,5,7-tetrahydro-6H-pyrazolo[3,4-c]pyridin-6-yl)(quinoxalin-6-yl)methanone] was tested, and the IC50 was 0.0251 µM.
Work on Cn1nc2c(c1-c1ccccc1)CCN(C(=O)c1coc3ccccc13)C2 [Example 36, Benzofuran-3-yl(2-methyl-3-phenyl-2,4,5,7-tetrahydro-6H-pyrazolo[3,4-c]pyridin-6-yl)methanone] yielded an IC50 of 0.75 µM.
Work on COc1cccc(C(=O)N2CCc3c(nn(C)c3-c3ccccc3)C2)c1Cl [Example 13, (2-Chloro-3-methoxyphenyl)(2-methyl-3-phenyl-2,4,5,7-tetrahydro-6H-pyrazolo[3,4-c]pyridin-6-yl)methanone] yielded an IC50 of 0.0168 µM.
With C[C@H]1c2nn(C)c(-c3cc(F)c(F)c(F)c3)c2CCN1C(=O)c1ccc2nccnc2c1 [Example 242, (S)-(2,7-Dimethyl-3-(3,4,5-trifluorophenyl)-2,4,5,7-tetrahydro-6H-pyrazolo[3,4-c]pyridin-6-yl)(quinoxalin-6-yl)methanone] the IC50 was 0.0223 µM.
Cn1nc2c(c1-c1ccccc1)CCN(C(=O)c1cc3[nH]ccc3s1)C2 [Example 31, (2-Methyl-3-phenyl-2,4,5,7-tetrahydro-6H-pyrazolo[3,4-c]pyridin-6-yl)(4H-thieno[3,2-b]pyrrol-2-yl)methanone] gave an IC50 of 1.23 µM.
C[C@H]1c2nn(C)c(-c3cc(F)c(F)c(F)c3)c2CCN1C(=O)c1cn(C)c2cccnc12 [Example 220, (S)-(2,7-Dimethyl-3-(3,4,5-trifluorophenyl)-2,4,5,7-tetrahydro-6H-pyrazolo[3,4-c]pyridin-6-yl)(1-methyl-1H-pyrrolo[3,2-b]pyridin-3-yl)methanone] gave an IC50 of 0.13 µM.
Work on C[C@H]1c2nn(C)c(-c3cccnc3)c2CCN1C(=O)c1ccc2nccnc2c1 [Example 108, (S)-(2,7-Dimethyl-3-(pyridin-3-yl)-2,4,5,7-tetrahydro-6H-pyrazolo[3,4-c]pyridin-6-yl)(quinoxalin-6-yl)methanone] yielded an IC50 of 1.3 µM.
Work on C[C@H]1c2nn(C)c(-c3cc(F)c(F)c(F)c3)c2CCN1C(=O)c1cnn(C(F)(F)F)c1 [Example 329, [(7S)-2,7-Dimethyl-3-(3,4,5-trifluorophenyl)-5,7-dihydro-4H-pyrazolo[3,4-c]pyridin-6-yl]-[1-(trifluoromethyl)pyrazol-4-yl]methanone] yielded an IC50 of 5.08 µM.
For Cn1nc2c(c1-c1ccccc1)CCN(C(=O)c1cccc3[nH]ccc13)C2 [Example 42, (1H-Indol-4-yl)(2-methyl-3-phenyl-2,4,5,7-tetrahydro-6H-pyrazolo[3,4-c]pyridin-6-yl)methanone], the IC50 was 0.0236 µM.
COc1ccc(C(=O)N2CCc3c(nn(C)c3-c3cc(F)c(F)c(F)c3)[C@@H]2C)nc1 [Example 301, [(7S)-2,7-Dimethyl-3-(3,4,5-trifluorophenyl)-5,7-dihydro-4H-pyrazolo[3,4-c]pyridin-6-yl]-(5-methoxy-2-pyridyl)methanone] showed an IC50 of 0.248 µM.
C[C@H]1c2nn(C)c(-c3cc(F)c(F)c(F)c3)c2CCN1C(=O)c1cnn(C2CC2)c1 [Example 331, (1-Cyclopropylpyrazol-4-yl)-[(7S)-2,7-dimethyl-3-(3,4,5-trifluorophenyl)-5,7-dihydro-4H-pyrazolo[3,4-c]pyridin-6-yl]methanone] was tested, and the IC50 was 0.25 µM.
C[C@H]1c2nn(C)c(-c3cc(F)c(F)c(F)c3)c2CCN1C(=O)c1cccc(-n2cncn2)c1 [Example 194, (S)-(3-(1H-1,2,4-Triazol-1-yl)phenyl)(2,7-dimethyl-3-(3,4,5-trifluorophenyl)-2,4,5,7-tetrahydro-6H-pyrazolo[3,4-c]pyridin-6-yl)methanone] showed an IC50 of 0.0148 µM.
